How the values were obtained:
[1] = target: T1, σ1-receptor (Cavia porcellus, UniProt Q60492); assay: Sigma-1 receptor binding assay, [3H](+)-pentazocine, brain membranes; settings: guinea pig brain membranes
T1 construct: guinea pig brains are homogenized; from tissue; host or cells: guinea pig brain membranes
Method: Brain membrane preparation and binding assays for the σ1-receptor are performed as described (DeHaven-Hudkins et al., 1992) with some modifications. In brief, guinea pig brains are homogenized in 10 vols. (w/v) of Tris-HCl 50 mM 0.32 M sucrose, pH 7.4, with a Kinematica Polytron PT 3000 at 15000 r.p.m. for 30 s. The homogenate is centrifuged at 1000 g for 10 min at 4° C. and the supernatants collected and centrifuged again at 48000 g for 15 min at 4° C. The pellet is resuspended in 10 volumes of Tris-HCl buffer (50 mM, pH 7.4), incubated at 37° C. for 30 min, and centrifuged at 48000 g for 20 min at 4° C. Following this, the pellet is resuspended in fresh Tris-HCl buffer (50 mM, pH 7.4) and stored on ice until use.
Each assay tube contains 10 μL of [^3H](+)-pentazocine (final concentration of 0.5 nM), 900 μL of the tissue suspension to a final assay volume of 1 mL and a final tissue concentration of approximately 30 mg tissue net weight/mL. Non-specific binding is defined by addition of a final concentration of 1 μM haloperidol. All tubes are incubated at 37° C. for 150 min before termination of the reaction by rapid filtration over Schleicher & Schuell GF 3362 glass fibre filters [previously soaked in a solution of 0.5% polyethylenimine for at least 1 h]. Filters are then washed four times with 4 mL of cold Tris-HCl buffer (50 mM, pH 7.4). Following addition of scintillation cocktail, the samples are allowed to equilibrate overnight. The amount of bound radioactivity is determined by liquid scintillation spectrometry using a Wallac Winspectral 1414 liquid scintillation counter. Protein concentrations are determined by the method of Lowry et al. (1951).

[2] = system: capsaicin-induced allodynia; assay: Von Frey filaments in a model of capsaicin-induced allodynia; type: in vivo; settings: mice, percent analgesia compared to control, mechanical stimulus after capsaicin injection into paw
Method: This model is described in detail in the experimental part of WO 2006/010587 A1, examples 1 and 2, the description being included here by reference. Capsaicin is thereby injected into experimental animals to produce acute pain followed by allodynia.
Briefly after habituation mice were first treated with the test-compound (or not in controls). Then capsaicin (1% DMSO) is injected into their paw resulting in developing pain in the effected paw. The effected paw is then treated with a mechanical stimulus and the latency time before the paw is withdrawn is measured.
The results obtained for examples 5, 6 and 8 are shown in table (II) as percent analgesia compared to control achieved at […] 16 mg/kg i.p.

T1 sequence (Q60492 whole entry): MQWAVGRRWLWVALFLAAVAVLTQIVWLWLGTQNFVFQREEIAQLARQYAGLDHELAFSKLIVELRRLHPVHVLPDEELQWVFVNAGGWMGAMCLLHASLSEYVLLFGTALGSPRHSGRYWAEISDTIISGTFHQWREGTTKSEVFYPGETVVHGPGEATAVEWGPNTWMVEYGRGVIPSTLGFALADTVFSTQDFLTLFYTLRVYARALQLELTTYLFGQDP

Ki [1]	melting point	SMILES	Analgesia (16 mg/kg), i.p. % [2]
2.5 nM	117 to 119 °C	O=C(O)C(=O)O.c1cn(C2CCCCC2)nc1OCCN1CCCC1 [Example 8, 1-Cyclohexyl-3-(2-(pyrrolidin-1-yl)ethoxy)-1H-pyrazole oxalate]	65%
8.6 nM	122 to 128 °C	O=C(O)C(=O)O.c1ccc(C2CCN(CCOc3ccn(C4CCCCC4)n3)CC2)cc1 [Example 11, 1-(2-(1-Cyclohexyl-1H-pyrazol-3-yloxy)ethyl)-4-phenylpiperidine oxalate]	–
–	85 to 90 °C	CCN(CC)CCOc1ccn(C2CCCCC2)n1.O=C(O)C(=O)O [Example 7, 2-(1-cyclohexyl-1H-pyrazol-3-yloxy)-N,N-diethylethanamine oxalate]	–

The remaining lines, values behind:

SMILES	Ki [1]	melting point	Analgesia (16 mg/kg), i.p. % [2]
O=C(O)C(=O)O.c1cn(C2CCCCC2)nc1OCCN1CCCCC1 [Example 6, 1-(2-(1-cyclohexyl-1H-pyrazol-3-yloxy)ethyl)piperidine oxalate]	1 ± 0.3 nM	105 to 110 °C	70%
O=C(O)C(=O)O.c1cn(C2CCCCC2)nc1OCCN1CCOCC1 [Example 5, 4-(2-(1-cyclohexyl-1H-pyrazol-3-yloxy)ethyl)morpholine oxalate]	4.1 ± 0.1 nM	135 to 140 °C	20%
CCN(CC)CCOc1ccn(C(C)(C)C)n1.O=C(O)C(=O)O	–	96 to 98 °C	–
CC(C)(C)n1ccc(OCCN2CCCCC2)n1.O=C(O)C(=O)O [Example 2, 1-[2-(1-tert-butyl-1H-pyrazol-3-yloxy)ethyl]piperidine oxalate]	–	123 to 126 °C	–
CC(C)(C)n1ccc(OCCN2CCCC2)n1.O=C(O)C(=O)O [Example 4, 1-tert-butyl-3-[2-(pyrrolidin-1-yl)ethoxy]-1H-pyrazole oxalate]	–	82 to 88 °C	–

Source: patent US8088812B2, “Sigma receptor inhibitors” (Laboratorios Del Dr. Esteve, S.A., priority 2006, dated 2012)
